What all share (type): cell-based
One assay deals with T1, human TRPV3 (Homo sapiens, UniProt Q8NET8).
T1 sequence (Q8NET8 1-790): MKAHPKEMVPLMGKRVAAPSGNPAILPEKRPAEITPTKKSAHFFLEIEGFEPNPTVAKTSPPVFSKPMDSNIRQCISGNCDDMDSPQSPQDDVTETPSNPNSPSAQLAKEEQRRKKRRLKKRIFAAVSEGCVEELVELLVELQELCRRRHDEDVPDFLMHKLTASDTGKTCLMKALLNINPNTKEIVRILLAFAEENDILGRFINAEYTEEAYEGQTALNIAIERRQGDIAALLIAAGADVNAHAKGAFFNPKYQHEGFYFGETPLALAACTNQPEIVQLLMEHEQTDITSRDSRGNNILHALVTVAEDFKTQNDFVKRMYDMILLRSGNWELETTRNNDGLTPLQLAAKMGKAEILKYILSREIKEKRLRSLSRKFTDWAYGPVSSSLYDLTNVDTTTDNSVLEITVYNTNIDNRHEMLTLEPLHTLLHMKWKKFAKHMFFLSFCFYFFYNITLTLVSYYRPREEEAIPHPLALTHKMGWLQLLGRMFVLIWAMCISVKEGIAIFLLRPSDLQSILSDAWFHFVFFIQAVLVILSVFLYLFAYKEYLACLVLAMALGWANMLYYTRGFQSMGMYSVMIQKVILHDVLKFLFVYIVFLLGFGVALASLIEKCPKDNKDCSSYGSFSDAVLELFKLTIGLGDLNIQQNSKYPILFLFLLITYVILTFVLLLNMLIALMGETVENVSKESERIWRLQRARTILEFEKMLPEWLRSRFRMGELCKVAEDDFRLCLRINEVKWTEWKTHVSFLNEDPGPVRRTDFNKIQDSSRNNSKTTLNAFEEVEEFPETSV
The assay is described as follows: Calcium flux in TRPV3 overexpressing HEK-293 cells. Particulars: HEK-293 cells overexpressing TRPV3. A general note: Calcium assays in cells follow changes in intracellular calcium, usually with a dye or a luminescent sensor.

For another assay, the target named is T2, human TRPV2 (Homo sapiens, UniProt Q9Y5S1).
T2 sequence (Q9Y5S1 1-764): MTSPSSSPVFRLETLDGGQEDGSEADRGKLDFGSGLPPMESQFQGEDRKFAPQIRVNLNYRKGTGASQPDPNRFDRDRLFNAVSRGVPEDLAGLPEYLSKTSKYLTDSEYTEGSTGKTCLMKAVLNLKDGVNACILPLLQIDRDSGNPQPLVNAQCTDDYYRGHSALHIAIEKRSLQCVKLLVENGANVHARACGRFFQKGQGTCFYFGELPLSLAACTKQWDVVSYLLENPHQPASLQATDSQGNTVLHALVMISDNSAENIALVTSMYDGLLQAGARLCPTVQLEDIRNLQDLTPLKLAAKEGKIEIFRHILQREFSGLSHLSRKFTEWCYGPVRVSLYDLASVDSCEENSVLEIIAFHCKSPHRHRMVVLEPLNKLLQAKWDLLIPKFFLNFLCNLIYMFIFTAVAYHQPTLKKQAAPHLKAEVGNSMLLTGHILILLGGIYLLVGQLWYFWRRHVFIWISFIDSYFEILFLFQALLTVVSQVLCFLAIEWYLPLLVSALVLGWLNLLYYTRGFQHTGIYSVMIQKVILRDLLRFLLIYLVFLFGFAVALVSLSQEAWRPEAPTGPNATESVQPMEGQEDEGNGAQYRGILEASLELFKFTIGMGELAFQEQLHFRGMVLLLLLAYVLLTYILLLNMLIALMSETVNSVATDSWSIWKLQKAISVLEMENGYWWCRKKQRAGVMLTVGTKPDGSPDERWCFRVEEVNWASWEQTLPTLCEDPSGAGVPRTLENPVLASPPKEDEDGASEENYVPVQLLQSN
The assay is described as follows: Calcium flux in HEK-293 cells overexpressing TRPV2. As to conditions: concentrations up to 1 mmol/L.

The target of another assay is human TRPV4 (Homo sapiens, UniProt Q9HBA0). The assay is described as follows: Calcium flux in HEK-293 cells overexpressing TRPV4. Particulars: concentrations up to 1 mmol/L.
Chain of human TRPV4 (Q9HBA0 whole entry): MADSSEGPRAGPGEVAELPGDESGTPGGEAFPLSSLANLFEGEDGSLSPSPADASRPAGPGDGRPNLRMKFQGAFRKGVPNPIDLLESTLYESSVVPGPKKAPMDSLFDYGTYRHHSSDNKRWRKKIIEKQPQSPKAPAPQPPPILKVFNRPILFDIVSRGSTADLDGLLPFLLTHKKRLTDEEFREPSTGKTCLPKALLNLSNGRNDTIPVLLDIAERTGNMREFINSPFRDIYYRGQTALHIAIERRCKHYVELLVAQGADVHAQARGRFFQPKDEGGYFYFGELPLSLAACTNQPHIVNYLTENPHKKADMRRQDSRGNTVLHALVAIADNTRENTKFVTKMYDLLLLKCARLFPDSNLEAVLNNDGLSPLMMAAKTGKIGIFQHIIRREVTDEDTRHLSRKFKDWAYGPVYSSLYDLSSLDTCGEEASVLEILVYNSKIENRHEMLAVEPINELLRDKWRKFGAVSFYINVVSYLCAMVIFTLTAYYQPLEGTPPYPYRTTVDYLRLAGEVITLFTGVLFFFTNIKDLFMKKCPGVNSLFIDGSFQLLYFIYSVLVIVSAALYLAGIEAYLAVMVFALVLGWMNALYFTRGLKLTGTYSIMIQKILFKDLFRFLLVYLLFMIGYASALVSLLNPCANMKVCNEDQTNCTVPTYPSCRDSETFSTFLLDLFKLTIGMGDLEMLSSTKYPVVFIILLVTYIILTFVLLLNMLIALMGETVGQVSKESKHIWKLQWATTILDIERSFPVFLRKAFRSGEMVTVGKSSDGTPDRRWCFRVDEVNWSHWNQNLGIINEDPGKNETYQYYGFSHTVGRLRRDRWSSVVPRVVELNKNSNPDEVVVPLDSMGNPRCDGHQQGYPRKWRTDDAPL
The next assay addresses human TRPA1 (Homo sapiens, UniProt O75762). Description: Calcium flux in HEK-293 cells overexpressing TRPA1. As to conditions: concentrations up to 1 mmol/L.
A further assay has as its target T3, TRPV3-R696K (Homo sapiens, UniProt Q8NET8, R696K).
T3 sequence (Q8NET8 1-790 R696K): T1 sequence (Q8NET8 1-790) with R696K
Description: Calcium flux in HEK-293 cells transiently transfected with TRPV3-R696K. As to conditions: 100 μmol/L carvacrol, 100 μmol/L 2-APB, 100 and 200 μmol/L drofenine.

Numbering of substitutions follows the chain as printed.

Chain of human TRPA1 (O75762 whole entry): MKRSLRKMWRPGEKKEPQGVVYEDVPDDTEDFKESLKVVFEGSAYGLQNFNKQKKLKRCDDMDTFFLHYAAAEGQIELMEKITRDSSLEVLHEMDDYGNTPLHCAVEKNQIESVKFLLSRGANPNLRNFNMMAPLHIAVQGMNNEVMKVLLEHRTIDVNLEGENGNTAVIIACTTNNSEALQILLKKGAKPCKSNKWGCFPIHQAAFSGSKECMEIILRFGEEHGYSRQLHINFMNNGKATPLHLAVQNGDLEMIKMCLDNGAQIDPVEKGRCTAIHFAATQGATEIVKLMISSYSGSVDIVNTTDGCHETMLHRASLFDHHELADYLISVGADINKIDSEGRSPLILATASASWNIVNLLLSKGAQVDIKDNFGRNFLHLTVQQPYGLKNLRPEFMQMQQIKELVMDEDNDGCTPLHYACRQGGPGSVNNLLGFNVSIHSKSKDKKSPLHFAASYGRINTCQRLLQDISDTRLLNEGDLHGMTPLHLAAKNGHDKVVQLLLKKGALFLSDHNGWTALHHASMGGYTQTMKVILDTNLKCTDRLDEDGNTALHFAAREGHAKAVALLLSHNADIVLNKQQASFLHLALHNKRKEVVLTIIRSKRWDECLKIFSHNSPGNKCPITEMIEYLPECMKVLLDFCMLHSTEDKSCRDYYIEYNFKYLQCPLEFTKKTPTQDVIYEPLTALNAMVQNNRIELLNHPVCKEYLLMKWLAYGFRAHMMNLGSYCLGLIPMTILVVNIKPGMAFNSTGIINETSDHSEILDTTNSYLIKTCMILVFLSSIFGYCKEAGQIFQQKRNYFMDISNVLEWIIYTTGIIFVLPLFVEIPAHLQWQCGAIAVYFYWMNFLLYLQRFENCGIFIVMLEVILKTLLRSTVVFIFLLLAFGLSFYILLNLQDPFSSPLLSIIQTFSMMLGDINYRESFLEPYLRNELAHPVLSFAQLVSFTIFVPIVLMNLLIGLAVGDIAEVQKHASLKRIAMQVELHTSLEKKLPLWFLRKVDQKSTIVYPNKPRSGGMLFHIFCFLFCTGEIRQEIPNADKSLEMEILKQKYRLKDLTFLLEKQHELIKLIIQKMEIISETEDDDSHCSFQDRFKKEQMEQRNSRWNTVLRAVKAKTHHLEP

As to `CCN(CC)CCOC(=O)C(c1ccccc1)C1CCCCC1` (centres unmarked) [drofenine], on human TRPV3, the “lowest concentration with detectable change in TRPV3 activity” value is around 30 µmol/L. For the same compound, the “activation of TRPV2” value at human TRPV2 is recorded as “not observed”. Also, at human TRPV4, the “activation of TRPV4” value is on record as “not observed”. In addition, at human TRPA1, the “activation of TRPA1” value is “not observed”. In addition, at TRPV3-R696K, the “calcium flux in TRPV3-R696K” value is “diminished-to-no-function”.

The values are drawn from publication PMC4115637 (Pharmacology Research & Perspectives, 2014).
